“And” between values parts separate entries of the source, which are not always exact repeats. Identical values can stand only once. Where only a bound is given, the exact number is not on record here.

One assay has as its target K-Ras-wildtype (Homo sapiens, UniProt P01116). The assay can be described thus: K-Ras-wildtype activation by SOS1 (wild-type KRAS activation by SOS1cat assay, HTRF). It counts as biochemical. The following applies: mean, SOS1cat mediated loading of wild-type GST-KRAS-GDP with fluorescent GTP analogue, read-out: K-Ras-wildtype activation by SOS1 IC50 - [mol/l] (mean). Here is the method:
(§1) Preparation of test compound dilutions. A 100-fold concentrated solution of the test compound (50 nL) in DMSO was transferred to microtiter test plates (384 or 1,536 wells, Greiner Bio-One, Germany) using either a Hummingbird liquid handler (Digilab, MA, USA) or an Echo acoustic system (Labcyte, CA, USA). Plates were sealed with adhesive foil or heat-sealed and stored at −20 C until use. Serial dilutions of test compounds were prepared in 100% DMSO using a Precision Pipetting System (BioTek, USA).
(§2) Measurement and evaluation of inhibition data, calculation of IC50 values. Homogeneous time-resolved fluorescence (HTRF) was measured with a PHERAstar reader (BMG, Germany) using the HTRF module (excitation: 337 nm; emission 1: 620 nm, emission 2: 665 nm). The ratio of the emissions at 665 and 620 nm was used as the specific signal for further evaluation. The data were normalized using the controls: DMSO=0% inhibition, inhibition control wells with inhibitor control solution=100% inhibition. Compounds were tested in duplicates at up to 11 concentrations (e.g. 20 μM, 5.7 μM, 1.6 μM, 0.47 μM, 0.13 μM, 38 nM, 11 nM, 3.1 nM, 0.89 nM, 0.25 nM and 0.073 nM). IC50 values were calculated using a four-parameter fit, with a commercial software package (Genedata Screener, Switzerland).
(§3) KRAS^G12C activation by SOS1^cat assay (“On-assay”). This assay quantifies SOS1^cat mediated loading of KRAS^G12C-GDP with a fluorescent GTP analogue. Detection of successful loading was achieved by measuring resonance energy transfer from anti-GST-terbium (FRET donor) bound to GST-KRAS^G12C to the loaded fluorescent GTP analogue (FRET acceptor). The fluorescent GTP analogue EDA-GTP-DY-647P1 [2′/3′-O-(2-aminoethyl-carbamoyl)guanosine-5′-triphosphate labelled with DY-647P1 (Dyomics GmbH, Germany)] was synthesized by Jena Bioscience (Germany) and supplied as a 1 mM aqueous solution. A KRAS^G12C working solution was prepared in assay buffer [10 mM HEPES pH 7.4 (AppliChem), 150 mM NaCl (Sigma), 5 mM MgCl2 (Sigma), 1 mM DTT (Thermo Fisher), 0.05% BSA Fraction V pH 7.0 (ICN Biomedicals), 0.0025% (v/v) Igepal (Sigma)] containing GST-KRAS^G12C (final concentration in assay 50 nM) and anti-GST-terbium (Cisbio, France) (final concentration in assay 1 nM). A SOS1^cat working solution was prepared in assay buffer containing SOS1^cat (final concentration 10 nM) and EDA-GTP-DY-647P1 (final concentration 100 nM). An inhibitor control solution was prepared in assay buffer containing EDA-GTP-DY-647P1 (final concentration 100 nM) without SOS1^cat. All steps of the assay were performed at 20° C. A volume of 3 μL of the KRAS^G12C working solution was added to all wells of the test plate using a Multidrop dispenser (Thermo LabSystems). After 15 min, 2 μL of the SOS1^ct working solution was added to all wells, except for the inhibitor control solution wells. After 30 min incubation, HTRF was measured.
(§4) G12D and Wild-type KRAS activation by SOS1cat assays. These assays quantify human SOS1^cat mediated loading of wild-type GST-KRAS^WT-GDP or GST-KRAS^G12D-GDP with a fluorescent GTP analogue. The assay was performed similarly to the KRAS^G12C activation by SOS1^cat assay with the following differences: final concentration of SOS1^cat of 60 nM and final incubation time before measurement of 10 min for KRAS^G12D assay, final concentration of SOS1^cat of 20 nM and final incubation time before measurement of 15 min for wild-type KRAS assay, respectively. GST-KRAS^G12C was replaced by GST-KRAS^WT or GST-KRAS^G12D, respectively, also at 50 nM final concentration.
Wild-type KRAS activation by SOS1^cat assay. This assay quantifies human SOS1^cat mediated loading of wild-type GST-KRAS-GDP with a fluorescent GTP analogue. The assay was performed similarly to the KRAS^G12D activation by SOS1^cat assay just by replacement of GST-KRAS^G12D by wild-type GST-KRAS while concentrations of all components and incubation times were the same.

A further assay concerns the target K-Ras G12D (Homo sapiens, UniProt P01116, G12D). Description: K-Ras G12D activation by SOS1 (KRAS G12D activation by SOS1cat assay, HTRF). The format is biochemical. The following applies: mean, SOS1cat mediated loading of GST-KRAS G12D-GDP with fluorescent GTP analogue, read-out: K-Ras G12D activation by SOS1 IC50 - [mol/l] (mean). The method, then: as §1, §2, §3, §4
KRAS^G12D activation by SOS1^cat assay (“On-assay”). This assay quantifies SOS1^cat mediated loading of KRAS^G12D-GDP with a fluorescent GTP analogue. Detection of successful loading was achieved by measuring resonance energy transfer from anti-GST-terbium (FRET donor) bound to GST-KRAS^G12D to the loaded fluorescent GTP analogue (FRET acceptor).
(In general: Time-resolved FRET reads energy transfer from a long-lived donor to a nearby acceptor.)

Sequence of K-Ras G12D (P01116 1-188 isoform P01116-2 G12D): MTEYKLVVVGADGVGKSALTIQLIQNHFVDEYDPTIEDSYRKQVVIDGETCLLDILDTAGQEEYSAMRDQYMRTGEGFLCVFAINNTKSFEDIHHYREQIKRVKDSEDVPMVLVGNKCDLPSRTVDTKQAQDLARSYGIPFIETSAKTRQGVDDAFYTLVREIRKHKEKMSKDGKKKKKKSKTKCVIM
Sequence of K-Ras-wildtype (P01116 1-188 isoform P01116-2): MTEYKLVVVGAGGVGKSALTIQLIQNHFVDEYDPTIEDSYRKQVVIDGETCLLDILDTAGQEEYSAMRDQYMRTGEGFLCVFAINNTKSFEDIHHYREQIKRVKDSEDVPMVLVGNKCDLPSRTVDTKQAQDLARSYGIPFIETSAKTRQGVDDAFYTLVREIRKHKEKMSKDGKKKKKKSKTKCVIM

For the compound `C#Cc1c(F)ccc2cc(O)cc(Oc3nc4c(N5CC6CCC(C5)NC6)nc(OC[C@@]56CCCN5C[C@H](F)C6)nc4s3)c12` (relative stereo) [Example 16, 4-[(7-[(1R*,5R*)-3,6-diazabicyclo[3.2.2]nonan-3-yl]-5-{[(2R,7aS)-2-fluorotetrahydro-1H-pyrrolizin-7a(5H)-yl]methoxy}[1,3]thiazolo[5,4-d]pyrimidin-2-yl)oxy]-5-ethynyl-6-fluoronaphthalen-2-ol], the IC50 on K-Ras-wildtype was found to be 212 nM; at K-Ras G12D, 15.2 nM.
Turning to `C#Cc1c(F)ccc2cc(O)cc(Oc3nc4c(N5CC6CCC(C5)NC6)nc(OC[C@@]56CCCN5C[C@H](F)C6)nc4s3)c12` (single isomer, unassigned) [Example 20, 4-[(7-[(1R*,5R*)-3,6-diazabicyclo[3.2.2]nonan-3-yl]-5-{[(2R,7aS)-2-fluorotetrahydro-1H-pyrrolizin-7a(5H)-yl]methoxy}[1,3]thiazolo[5,4-d]pyrimidin-2-yl)oxy]-5-ethynyl-6-fluoronaphthalen-2-ol], the results for the IC50 at K-Ras-wildtype and on K-Ras G12D were 405 nM and 8.11 nM, respectively.
`C#Cc1c(F)ccc2cc(O)cc(Oc3nc4c(N5CC6CCC(C5)NC6)nc(OC[C@@]56CCCN5C[C@H](F)C6)nc4s3)c12` (single isomer, unassigned) [Example 21, 4-[(7-[(1S*,5S*)-3,6-diazabicyclo[3.2.2]nonan-3-yl]-5-{[(2R,7aS)-2-fluorotetrahydro-1H-pyrrolizin-7a(5H)-yl]methoxy}[1,3]thiazolo[5,4-d]pyrimidin-2-yl)oxy]-5-ethynyl-6-fluoronaphthalen-2-ol]: the IC50 at K-Ras-wildtype stood at 182 nM; at K-Ras G12D, 219 nM.
The corresponding values for `C#Cc1c(F)ccc2cc(O)cc(Oc3nc4c(N5C[C@H]6CC(F)[C@@H](C5)N6)nc(OC[C@@]56CCCN5C[C@H](F)C6)nc4s3)c12` (single isomer, unassigned) [Example 24, 5-Ethynyl-6-fluoro-4-[(7-[(1R*,5R*)-6-fluoro-3,8-diazabicyclo[3.2.1]octan-3-yl]-5-{[(2R,7aS)-2-fluorotetrahydro-1H-pyrrolizin-7a(5H)-yl]methoxy}[1,3]thiazolo[5,4-d]pyrimidin-2-yl)oxy]naphthalen-2-ol] are 24.1 nM and 26.7 nM.
The corresponding values for `C#Cc1c(F)ccc2cc(O)cc(Oc3nc4c(N5C[C@H]6CC(F)[C@@H](C5)N6)nc(OC[C@@]56CCCN5C[C@H](F)C6)nc4s3)c12` (single isomer, unassigned) [Example 25, 5-Ethynyl-6-fluoro-4-[(7-[(1R*,5R*)-6-fluoro-3,8-diazabicyclo[3.2.1]octan-3-yl]-5-{[(2R,7aS)-2-fluorotetrahydro-1H-pyrrolizin-7a(5H)-yl]methoxy}[1,3]thiazolo[5,4-d]pyrimidin-2-yl)oxy]naphthalen-2-ol] are 69.9 nM and 18.7 nM.
Take `C#Cc1c(F)ccc2cc(O)cc(Oc3nc4c(N5C[C@H]6CC(F)[C@@H](C5)N6)nc(OC[C@@]56CCCN5C[C@H](F)C6)nc4s3)c12` (single isomer, unassigned) [Example 26, 5-Ethynyl-6-fluoro-4-[(7-[(1R*,5R*)-6-fluoro-3,8-diazabicyclo[3.2.1]octan-3-yl]-5-{[(2R,7aS)-2-fluorotetrahydro-1H-pyrrolizin-7a(5H)-yl]methoxy}[1,3]thiazolo[5,4-d]pyrimidin-2-yl)oxy]naphthalen-2-ol]: the IC50 on K-Ras-wildtype turned out to be 25.9 nM; at K-Ras G12D, 26.3 nM.
As for `C#Cc1c(F)ccc2cc(O)cc(Oc3nc4c(N5C[C@H]6CC(F)[C@@H](C5)N6)nc(OC[C@@]56CCCN5C[C@H](F)C6)nc4s3)c12` (single isomer, unassigned) [Example 27, 5-Ethynyl-6-fluoro-4-[(7-[(1R*,5R*)-6-fluoro-3,8-diazabicyclo[3.2.1]octan-3-yl]-5-{[(2R,7aS)-2-fluorotetrahydro-1H-pyrrolizin-7a(5H)-yl]methoxy}[1,3]thiazolo[5,4-d]pyrimidin-2-yl)oxy]naphthalen-2-ol], the IC50 at K-Ras-wildtype is 91.2 nM; at K-Ras G12D it was 23.7 nM.
Regarding `C#Cc1c(F)ccc2cc(O)cc(Oc3nc4c(N5CC6CCC(C5)N6)nc(OC[C@@]56CCCN5CC(F)C6)nc4s3)c12` (stereo in doubt) [Example 6, 4-{[7-(3,8-diazabicyclo[3.2.1]octan-3-yl)-5-{[(2R,7aS)-2-fluorotetrahydro-1H-pyrrolizin-7a(5H)-yl]methoxy}[1,3]thiazolo[5,4-d]pyrimidin-2-yl]oxy}-5-ethynyl-6-fluoronaphthalen-2-ol], the IC50 at K-Ras-wildtype was 32.8 nM and 33.1 nM; at K-Ras G12D it was 1.86 nM and 2.18 nM.
Take `Oc1cc(Oc2nc3c(N4CC5CCC(C4)N5)nc(OCC45CCCN4CCC5)nc3s2)c2ccccc2c1` [Example 1, 4-{[7-(3,8-diazabicyclo[3.2.1]octan-3-yl)-5-(tetrahydro-1H-pyrrolizin-7a(5H)-ylmethoxy)[1,3]thiazolo[5,4-d]pyrimidin-2-yl]oxy}-2-naphthol]: the IC50 on K-Ras-wildtype is at least 20000 nM; at K-Ras G12D, 1000 nM.
Turning to `C#Cc1cccc2cc(O)cc(Oc3nc4c(N5CC6CCC(C5)N6)nc(OCC56CCCN5CCC6)nc4s3)c12` [Example 2, 4-{[7-(3,8-diazabicyclo[3.2.1]octan-3-yl)-5-(tetrahydro-1H-pyrrolizin-7a(5H)-ylmethoxy)[1,3]thiazolo[5,4-d]pyrimidin-2-yl]oxy}-5-ethynyl-2-naphthol], the IC50 worked out at 126 nM at K-Ras-wildtype and 5.55 nM on K-Ras G12D.
The corresponding values for `Oc1cc(Oc2nc3c(N4C[C@H]5CC[C@@H](C4)N5)nc(OCC45CCCN4CCC5)nc3s2)c2c(F)cccc2c1` [Example 3, 4-({7-[(1R,5S)-3,8-diazabicyclo[3.2.1]octan-3-yl]-5-[(tetrahydro-1H-pyrrolizin-7a(5H)-yl)methoxy][1,3]thiazolo[5,4-d]pyrimidin-2-yl}oxy)-5-fluoronaphthalen-2-ol] are 8140 nM and 325 nM.
`Cc1cccc2cc(O)cc(Oc3nc4c(N5CC6CCC(C5)N6)nc(OCC56CCCN5CCC6)nc4s3)c12` [Example 4, 4-({7-(3,8-diazabicyclo[3.2.1]octan-3-yl)-5-[(tetrahydro-1H-pyrrolizin-7a(5H)-yl)methoxy][1,3]thiazolo[5,4-d]pyrimidin-2-yl}oxy)-5-methylnaphthalen-2-ol]: the results for the IC50 on K-Ras-wildtype and on K-Ras G12D were 1550 nM and 79.8 nM, respectively.
The corresponding values for `C#Cc1c(F)ccc2cc(O)cc(Oc3nc4c(N5C[C@H]6CC[C@@H](C5)N6)nc(OCC56CCCN5CCC6)nc4s3)c12` [Example 5, 4-({7-[(1R,5S)-3,8-diazabicyclo[3.2.1]octan-3-yl]-5-[(tetrahydro-1H-pyrrolizin-7a(5H)-yl)methoxy][1,3]thiazolo[5,4-d]pyrimidin-2-yl}oxy)-5-ethynyl-6-fluoronaphthalen-2-ol] are 69.1 nM and 3.79 nM.
